Data from US4971990A, “Phenoxyethylamine derivatives, for preparing the same and composition for exhibiting excellent α1 -blocking activity containing the same” (Hokuriku Pharmaceutical Co., Ltd., priority 1988, dated 1990).
Counter-ions that a name gives are not always drawn. Like-named read-outs stand apart in the source and are kept apart here.

How the values were obtained:
dopamine D2-receptor = biological target: T1, dopamine D2-receptor (Rattus norvegicus, UniProt P61169); assay: Dopamine D2-receptor radioligand-binding assay (3H-spiperone, brain striatum membranes); set-up: species or system rat (male Wistar)
T1 construct: The homogenates were centrifuged and synaptic membrane fractions were obtained; from tissue; host or cells: brain striatum, synaptic membrane fraction, male Wistar rat
T1 sequence (P61169 whole entry): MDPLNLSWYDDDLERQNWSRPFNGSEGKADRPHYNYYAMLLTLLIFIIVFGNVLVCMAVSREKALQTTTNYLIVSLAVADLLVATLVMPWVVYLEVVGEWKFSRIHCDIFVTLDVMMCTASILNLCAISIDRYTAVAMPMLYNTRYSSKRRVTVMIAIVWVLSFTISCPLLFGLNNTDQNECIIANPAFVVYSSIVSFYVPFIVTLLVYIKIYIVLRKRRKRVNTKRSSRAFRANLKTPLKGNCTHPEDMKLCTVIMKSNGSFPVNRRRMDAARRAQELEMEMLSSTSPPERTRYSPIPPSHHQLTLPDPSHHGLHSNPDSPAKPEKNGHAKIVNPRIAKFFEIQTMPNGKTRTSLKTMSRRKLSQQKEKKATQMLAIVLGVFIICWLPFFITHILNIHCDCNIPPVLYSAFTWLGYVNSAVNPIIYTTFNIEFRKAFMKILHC
Protocol: Dopamine D2 -receptor radioligand-binding assay
Method: These experiments were done according to the method of Coward, D et al. (Naunyn-Schmiedeberg's Archives of Pharmacology (1987)335, 115-122). Briefly, brain striatum were isolated from male Wistar rats (about 200 g b.w.). The tissues were homogenaized in ice-cold 50 mM Tris buffer (pH7.4) with a polytron and centrifuged at 50,000 g for 15 min.. The pellets were homogenaized in the same Tris buffer and incubated for 5 min. at 37° C. The homogenates were centrifuged and synaptic membrane fractions were obtained. The membrane fractions were incubated with ^3 H-spiperone and various concentrations of the test compounds for 50 min. at 25° C. The reaction was terminated by filtration on a GF/B glass filter under vacuum. The radioactivity on the filter was measured using a liquid scintillation counter. The test compounds' dissociation constants (Ki) were determined according to the following equation.
IC50 : the test compound concentration needed to inhibit 50% of ^3 H-spiperone binding calculated by pseudo-Hill plot.
L : ^3 H-spiperone concentration
Kd : ^3 H-spiperone dissociation constant calculated by Scatchard plot.
The pKi values was then expressed as the negative logarithum of Ki. This value represents an affinity of the test compound to dopamine D2 -receptors. Non-specific binding of ^3 H-spiperone was determined in the presence of 10^-5 M sulpiride. Protein concentration was determined by the method of Lowry.

α1-adrenoceptor = α1-adrenoceptor blocking action (noradrenaline concentration-response in isolated thoracic aorta); type: cell-based, rabbit (Japanese white, male); conditions: for pA2 value: negative logarithm of KB (M), noradrenaline as agonist, rabbit thoracic aorta, 30 min exposure, 10^-6 M propranolol; for α1-adrenoceptor selectivity 10^(pA2-pKi): α1-adrenoceptors (pA2, rabbit aorta) compared to dopamine D2-receptors (pKi, rat striatum)
Protocol: α1 -adrenoceptor blocking action
Method: The thoracic aorta were isolated from male rabbits (Japanese white, about 2.5 kg b.w.) and helically cut. The preparations were suspended in Krebs-Henseleit solution maintained at 37° C. and aerated with a gas mixture of 95%O2 +5%CO2. Responses to drugs were recorded isometrically under a tension of 2 g. After an equilibration period of about 60 min., cumulative concentration-response curves for noradrenaline were constructed. The preparations were exposed to the test compounds for 30 min. before rechallenge with noradrenaline. The dose ratio was obtained from the ratio of an ED50 value (the concentration needs to produce the half maximum response) of noradrenaline in the presence and absence of the test compound. The test compounds dissociation constants (KB) were determined according to the following equation.
KB =[concentration of the test compound (M)/(dose ratio-1)]
The pA2 values were then expressed as the negative logarithm of KB.
This value represents the blocking activity of a test compound to α1 -adrenoceptors. In these experimental periods, 10^-6 M propranolol was treated to block β-adrenoceptors. The results shown in Table 1-a indicate that the α1 -adrenoceptor blocking activites of the test compounds are almost the as same as that of YM-12617.
The selectivity of the test compound to α1 -adrenoceptors compared to dopamine D2 -receptors is determined according to the following equation.
α1 -adrenoceptor selectivity =10^(pA 2^-pK i^)

[1] = 3H-spiperone, rat striatum synaptic membranes, 50 min at 25° C., non-specific binding with 10^-5 M sulpiride, read-out: pKi value (converted)

Question: Which results are given for COc1ccc(F)cc1OCCNC(C)Cc1ccc(OC)c(S(=O)(=O)N2CCCCC2)c1 (stereo not drawn) [Example 12, 1-[[5-[2-[2-(5-Fluoro-2-methoxyphenoxy)ethylamino]propyl]-2-methoxyphenyl]sulfonyl]-methoxyphenyl]sulfonyl]piperidine oxalate]?
Answer: Ki (dopamine D2-receptor): 89.1 nM; pA2 value (α1-adrenoceptor): 9.10

Question: How did the Ki (dopamine D2-receptor) turn out when COc1ccc(F)cc1OCCNC(C)Cc1ccc(OC)c(S(=O)(=O)N2CCCC2)c1.O=C(O)C(=O)O (stereo not drawn) [Example 11, 1-[[5-[2-[2-(5-Fluoro-2-methoxyphenoxy)ethylamino]propyl]-2methoxyphenyl]sulfonyl]pyrrolidine oxalate] was run?
Answer: 64.6 nM

Question: What about the pA2 value (α1-adrenoceptor) of the same compound?
Answer: 9.33

Question: CCOc1ccc(F)cc1OCCNC(C)Cc1ccc(OCC)c(S(N)(=O)=O)c1 (stereo not drawn) [Example 5, 2-Ethoxy-5-[2-[2-(2-ethoxy-5-fluorophenoxy)ethylamino]propyl] benzenesulfonamide hydrochloride] was tested. Which Ki (dopamine D2-receptor) did it give?
Answer: 83.2 nM

Question: And the pA2 value (α1-adrenoceptor)?
Answer: 8.98

Question: What about the “α1-adrenoceptor selectivity 10^(pA2-pKi)” value (α1-adrenoceptor) of the same compound?
Answer: 79

Question: What does the source list for COc1ccc(F)cc1OCCNC(C)Cc1ccc(OC)c(S(=O)(=O)N(C)C)c1 (stereo not drawn) [Example 10, 5-[2-[2-(5-Fluoro-2-methoxyphenoxy)ethylamino]propy]-2-methoxy-N,N-dimethylbenzenesulfonamide oxalate]?
Answer: Ki (dopamine D2-receptor; [1]): 110 nM; pA2 value (α1-adrenoceptor): 9.42; α1-adrenoceptor selectivity 10^(pA2-pKi) (α1-adrenoceptor): 288

Question: Which results are given for COc1ccc(F)cc1OCCN[C@H](C)Cc1ccc(OC)c(S(N)(=O)=O)c1.Cl [Example 34, R-(-)-5-[2-[2-(5-Fluoro-2-methoxyphenoxy)-ethylamino]propyl]-2-methoxybenzenesulfonamide hydrochloride]?
Answer: Ki (dopamine D2-receptor): 74.1 nM; pA2 value (α1-adrenoceptor): 9.77; α1-adrenoceptor selectivity 10^(pA2-pKi) (α1-adrenoceptor): 437

Question: For CCOc1ccccc1OCCNC(C)Cc1ccc(OC)c(S(N)(=O)=O)c1 (racemic) [YM-12617, 5-[2-[[2-(2-ethoxyphenoxy)ethyl]amino]propyl]-2-methoxybenzene-sulfonamidehydrochloride, reference compound], which Ki (dopamine D2-receptor; [1]) is on record?
Answer: 20.9 nM

Question: What about the pA2 value (α1-adrenoceptor) of the same compound?
Answer: 9.38

Question: What about the “α1-adrenoceptor selectivity 10^(pA2-pKi)” value (α1-adrenoceptor) of the same compound?
Answer: 50

Question: With CCCCNS(=O)(=O)c1cc(CC(C)NCCOc2cc(F)ccc2OC)ccc1OC.O=C(O)C(=O)O (stereo not drawn) [Example 22, N-Butyl-5-[2-[2-(5-fluoro-2-methoxyphenoxy)ethylamino]propyl]-2-methoxybenzenesulfonamide oxalate] as the compound, how does the Ki (dopamine D2-receptor) read?
Answer: 77.6 nM

Question: What about the pA2 value (α1-adrenoceptor) of the same compound?
Answer: 9.08

Question: How did the Ki (dopamine D2-receptor; [1]) turn out when COc1ccc(F)cc1OCCNC(C)Cc1ccc(OC)c(S(N)(=O)=O)c1 (stereo not drawn) [Example 1, 5-[2-[2-(5-Fluoro-2-methoxyphenoxy)ehtylamino]propyl]-2-methoxybenzenesulfonamide hydrochloride] was run?
Answer: 120 nM

Question: What about the pA2 value (α1-adrenoceptor) of the same compound?
Answer: 9.45

Question: And the “α1-adrenoceptor selectivity 10^(pA2-pKi)” value (α1-adrenoceptor)?
Answer: 339

Question: CCCNS(=O)(=O)c1cc(CC(C)NCCOc2cc(F)ccc2OC)ccc1OC (stereo not drawn) [Example 20, 5-[2[2-(5-Fluoro-2-methoxyphenoxy)ethylamino]propyl]-2-methoxy-N-propylbenzenesulfonamide 1/2fumarate] was tested. Which Ki (dopamine D2-receptor; [1]) did it give?
Answer: 129 nM

Question: And the pA2 value (α1-adrenoceptor)?
Answer: 9.10

Question: CCOc1ccc(F)cc1OCCNC(C)Cc1ccc(OC)c(S(N)(=O)=O)c1.Cl (stereo not drawn) [Example 14, 5-[2-[2-(2-Ethoxy-5-fluorophenoxy)ethylamino]propyl]-2-methoxybenzenesulfonamide hydrochloride] was tested. Which Ki (dopamine D2-receptor) did it give?
Answer: 23.4 nM

Question: And the pA2 value (α1-adrenoceptor)?
Answer: 9.69

Question: And the “α1-adrenoceptor selectivity 10^(pA2-pKi)” value (α1-adrenoceptor)?
Answer: 115

Question: CCOc1ccc(F)cc1OCCNC(C)Cc1ccc(OC)c(S(=O)(=O)N(C)C)c1.O=C(O)C(=O)O (stereo not drawn) [Example 15, 5-[2-[2-(2-Ethoxy-5-fluorophenoxy)ethylamino]propyl]-2-methoxy-N,N-dimethylbenzenesulfonamide oxalate] was tested. Which Ki (dopamine D2-receptor) did it give?
Answer: 25.7 nM

Question: What about the pA2 value (α1-adrenoceptor) of the same compound?
Answer: 9.48

Question: And the “α1-adrenoceptor selectivity 10^(pA2-pKi)” value (α1-adrenoceptor)?
Answer: 78

Question: How did the Ki (dopamine D2-receptor) turn out when CCNS(=O)(=O)c1cc(CC(C)NCCOc2cc(F)ccc2OC)ccc1OC (stereo not drawn) [Example 21, N-Ethyl-5-[2-(5-fluoro-2-methoxyphenoxy)ethylamino]propyl]-2-methoxy-benzenesulfonamide oxalate] was run?
Answer: 93.3 nM

Question: What about the pA2 value (α1-adrenoceptor) of the same compound?
Answer: 9.14

Question: CNS(=O)(=O)c1cc(CC(C)NCCOc2cc(F)ccc2OC)ccc1OC.O=C(O)C(=O)O (stereo not drawn) [Example 9, 5-[2-[2-(5-Fluoro-2-methoxyphenoxy)ethylamino]propyl]-2-methoxy-N-methylbenzenesulfonamide oxalate] was tested. Which Ki (dopamine D2-receptor) did it give?
Answer: 93.3 nM

Question: What about the pA2 value (α1-adrenoceptor) of the same compound?
Answer: 9.34

Question: For CCOc1ccc(CC(C)NCCOc2cc(F)ccc2OC)cc1S(N)(=O)=O (stereo not drawn) [Example 2, 2-Ethoxy-5-[2-[2-(5-fluoro-2-methoxyphenoxy)ethylamino]propyl] benzenesulfonamide hydrochloride], which Ki (dopamine D2-receptor; [1]) is on record?
Answer: 166 nM

Question: And the pA2 value (α1-adrenoceptor)?
Answer: 9.05

Question: What about the “α1-adrenoceptor selectivity 10^(pA2-pKi)” value (α1-adrenoceptor) of the same compound?
Answer: 186
